Assay results: patent US8575156B2, “Cyclic inhibitors of 11β-hydroxysteroid dehydrogenase 1” (Vitae Pharmaceuticals, Inc., priority 2007, dated 2013)
Where two headings read alike, the source gives them in different places.

Target: 11β-HSD1 (Homo sapiens, UniProt P28845)
Experiment: biochemical
Settings: for IC50: IC50 Range, Biological Test Example 1, microsomes from CHO cells overexpressing human 11β-HSD1; for inhibition at 0.1111 µM: read-out: Average % inhibition at 111.1 nM, Biological Test Example 1
[1] = read-out: Average % inhibition at 100 nM
[2] = read-out: Average % inhibition at 100 nM, Biological Test Example 1, 100 nM
[3] = read-out: Average % inhibition at 100 nM, Biological Test Example 1, 100 nM compound

Chain of 11β-HSD1 (P28845 whole entry): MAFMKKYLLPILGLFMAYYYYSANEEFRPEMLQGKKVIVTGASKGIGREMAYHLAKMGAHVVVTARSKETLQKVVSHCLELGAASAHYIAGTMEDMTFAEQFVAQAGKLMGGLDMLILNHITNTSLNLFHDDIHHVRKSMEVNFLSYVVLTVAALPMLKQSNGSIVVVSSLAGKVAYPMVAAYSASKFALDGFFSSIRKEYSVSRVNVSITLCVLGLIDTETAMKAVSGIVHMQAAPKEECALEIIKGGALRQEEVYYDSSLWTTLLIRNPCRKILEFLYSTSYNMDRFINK

C[C@@H](c1ccccc1)N1CC[C@](CCO)(c2ccc(F)cc2)OC1=O (single isomer, unassigned) [EXAMPLE 97 Isomer 2]
IC50: < 100 nM
inhibition at 0.1111 µM (111.1 nM compound): 88.2%

C[C@@H](c1ccc(CC(C)(C)O)cc1)N1CC[C@](CCCO)(c2ccccc2)OC1=O [EXAMPLE 312, (R)-3-((S)-1-(4-(2-hydroxy-2-methylpropyl)phenyl)ethyl)-6-(3-hydroxypropyl)-6-phenyl-1,3-oxazinan-2-one]
IC50: < 100 nM
inhibition at 0.1 µM [1]: 85.7%

C[C@@H](c1ccc(-c2cccc(CN)c2)cc1)N1CC[C@](CCCO)(c2ccccc2)OC1=O [EXAMPLE 493, (R)-3-((S)-1-(3′-(aminomethyl)biphenyl-4-yl)ethyl)-6-(3-hydroxypropyl)-6-phenyl-1,3-oxazinan-2-one]
IC50: < 100 nM
inhibition at 0.1 µM [2]: 89.1%

C[C@@H](c1ccccc1)N1CC[C@@](CCO)(c2ccc(F)cc2)OC1=O (single isomer, unassigned) [EXAMPLE 97 Isomer 1]
IC50: 100 to 1000 nM
inhibition at 0.1111 µM (111.1 nM compound): 52.8%

C=CC[C@]1(c2ccc(F)cc2)CCN([C@@H](C)c2ccc(C(=O)N3CCCCC3)cc2)C(=O)O1 [EXAMPLE 243, (R)-6-allyl-6-(4-fluorophenyl)-3-((S)-1-(4-(piperidine-1-carbonyl)phenyl)ethyl)-1,3-oxazinan-2-one]
IC50: < 100 nM
inhibition at 0.1 µM [3]: 38.9%

Cc1ccccc1C1(C)CCN([C@@H](C)c2ccccc2)C(=O)O1 (single isomer, unassigned) [EXAMPLE 86 Isomer 1]
IC50: 100 to 1000 nM
inhibition at 0.1111 µM (111.1 nM compound): 43.3%

C[C@@H](c1ccc(Br)cc1)N1CCC(CCCO)(c2ccc(F)cc2)OC1=O (single isomer, unassigned) [EXAMPLE 227 Isomer 1]
IC50: < 100 nM

C[C@@H](c1cccc(Br)c1)N1CC[C@](CC(C)(C)O)(c2ccc(F)cc2)OC1=O [EXAMPLE 356, (S)-3-((S)-1-(3-bromophenyl)ethyl)-6-(4-fluorophenyl)-6-(2-hydroxy-2-methylpropyl)-1,3-oxazinan-2-one]
IC50: < 100 nM
inhibition at 0.1 µM [2]: 92%

CC(O)C[C@]1(c2ccc(F)cc2)CCN([C@@H](C)c2ccc(-c3ccc(F)cc3F)cc2)C(=O)O1 (single isomer, unassigned) [EXAMPLE 137 Isomer 1]
IC50: < 100 nM

C[C@@H](c1ccc(S(C)(=O)=O)cc1)N1CC[C@](CCO)(c2ccc(F)cc2)OC1=O [EXAMPLE 308, (S)-6-(4-fluorophenyl)-6-(2-hydroxyethyl)-3-((S)-1-(4-(methylsulfonyl)phenyl)ethyl)-1,3-oxazinan-2-one]
IC50: > 1000 nM
inhibition at 0.1 µM [2]: 25%
inhibition at 0.1111 µM (111.1 nM): 8.6%

C[C@@H](c1ccc(Br)cc1)N1CC[C@](CCN2CC[C@H](F)C2)(c2ccc(F)cc2)OC1=O [EXAMPLE 377, (R)-3-((S)-1-(4-bromophenyl)ethyl)-6-(4-fluorophenyl)-6-(2-((S)-3-fluoropyrrolidin-1-yl)ethyl)-1,3-oxazinan-2-one]
IC50: < 100 nM
inhibition at 0.1 µM [2]: 72%

C[C@@H](c1ccc(-c2ccc(F)cc2)cc1)N1CC[C@](CCC(C)(C)O)(c2ccccc2)OC1=O [EXAMPLE 248, (R)-3-((S)-1-(4′-fluorobiphenyl-4-yl)ethyl)-6-(3-hydroxy-3-methylbutyl)-6-phenyl-1,3-oxazinan-2-one]
IC50: < 100 nM
inhibition at 0.1 µM [3]: 96.7%

C[C@@H](c1ccc(-c2ccc(F)cc2F)cc1)N1CC[C@](CCCOP(=O)(O)O)(c2ccccc2)OC1=O [EXAMPLE 492, 3-((R)-3-((S)-1-(2′,4′-difluorobiphenyl-4-yl)ethyl)-2-oxo-6-phenyl-1,3-oxazinan-6-yl)propyl dihydrogen phosphate]
IC50: < 100 nM
inhibition at 0.1 µM [2]: 87.7%

C[C@@H](c1ccc(Br)cc1)N1CC[C@](CC(C)(C)CO)(c2ccc(F)cc2)OC1=O [EXAMPLE 528, (R)-3-((S)-1-(4-bromophenyl)ethyl)-6-(4-fluorophenyl)-6-(3-hydroxy-2,2-dimethylpropyl)-1,3-oxazinan-2-one]
IC50: < 100 nM
inhibition at 0.1 µM [2]: 98.6%

Cc1ccc(C2(C)CCN([C@@H](C)c3ccccc3)C(=O)O2)cc1 (stereo partly drawn) [EXAMPLE 88, 6-methyl-3-((S)-1-phenylethyl)-6-p-tolyl-1,3-oxazinan-2-one]
IC50: < 100 nM
inhibition at 0.1111 µM (111.1 nM compound): 97.1%

O=C1OC(CCCO)(c2ccc(F)cc2)CCN1Cc1ccc(Cl)cc1Cl (stereo not drawn) [EXAMPLE 343, 3-(2,4-dichlorobenzyl)-6-(4-fluorophenyl)-6-(3-hydroxypropyl)-1,3-oxazinan-2-one]
IC50: < 100 nM
inhibition at 0.1 µM [1]: 82.3%

COCc1ccc([C@H](C)N2CC[C@](CCCO)(c3ccccc3)OC2=O)cc1 [EXAMPLE 199, (R)-6-(3-hydroxypropyl)-3-((S)-1-(4-(methoxymethyl)phenyl)ethyl)-6-phenyl-1,3-oxazinan-2-one]
IC50: < 100 nM
inhibition at 0.1 µM [1]: 90.3%

C[C@@H](c1ccc(Br)cc1)N1CC[C@](CC(C)(C)C(N)=O)(c2ccc(F)cc2)OC1=O [EXAMPLE 522, 3-((R)-3-((S)-1-(4-bromophenyl)ethyl)-6-(4-fluorophenyl)-2-oxo-1,3-oxazinan-6-yl)-2,2-dimethylpropanamide]
IC50: < 100 nM
inhibition at 0.1 µM [2]: 97.5%

O=C1OC(CCO)(c2ccc(F)cc2)CCN1c1cccc(-c2ccc(F)cc2)n1 (stereo not drawn) [EXAMPLE 103, 6-(4-fluorophenyl)-3-(6-(4-fluorophenyl)pyridin-2-yl)-6-(2-hydroxyethyl)-1,3-oxazinan-2-one]
IC50: < 100 nM
inhibition at 0.1111 µM (111.1 nM compound): 86.9%

CC1CC(CCO)(c2ccc(F)cc2)OC(=O)N1[C@@H](C)c1ccc(Br)cc1 (single isomer, unassigned) [EXAMPLE 163 Isomer 1]
IC50: < 100 nM
inhibition at 0.1111 µM (111.1 nM compound): 66.8%

CC(O)C[C@]1(c2ccc(F)cc2)CCN([C@@H](C)c2cccc(Br)c2)C(=O)O1 (stereo partly drawn) [EXAMPLE 355, (6S)-3-((S)-1-(3-bromophenyl)ethyl)-6-(4-fluorophenyl)-6-(2-hydroxypropyl)-1,3-oxazinan-2-one]
IC50: < 100 nM
inhibition at 0.1 µM [1]: 95.5%

C=CCC1(c2ccc(F)cc2)CCN([C@@H](C)c2ccc(Cl)cc2)C(=O)O1 (single isomer, unassigned) [EXAMPLE 196 Isomer 1]
IC50: < 100 nM
inhibition at 0.1 µM [3]: 101%

CC(O)CC[C@]1(c2ccc(F)cc2)CCN([C@@H](C)c2ccc(Cl)cc2)C(=O)O1 (single isomer, unassigned) [EXAMPLE 383 Isomer 1]
IC50: < 100 nM
inhibition at 0.1 µM [2]: 94.7%

CC1(c2ccccc2)CCN(c2cccc(-c3ccncc3)c2)C(=O)O1 (stereo not drawn) [EXAMPLE 33, 6-methyl-6-phenyl-3-(3-(pyridin-4-yl)phenyl)-1,3-oxazinan-2-one]
inhibition at 0.1111 µM (111.1 nM compound): 37.1%

C=CC[C@@]1(c2cccs2)CCN([C@@H](C)c2ccc(-c3ccc(F)cc3F)cc2)C(=O)O1 [EXAMPLE 165, (S)-6-allyl-3-((S)-1-(2′,4′-difluorobiphenyl-4-yl)ethyl)-6-(thiophen-2-yl)-1,3-oxazinan-2-one]
IC50: < 100 nM
inhibition at 0.1111 µM (111.1 nM compound): 92.9%

C[C@@H](c1ccc(Cl)cc1)N1CC[C@](CCCNS(C)(=O)=O)(c2ccccc2)OC1=O [EXAMPLE 404, N-(3-((R)-3-((S)-1-(4-chlorophenyl)ethyl)-2-oxo-6-phenyl-1,3-oxazinan-6-yl)propyl)methanesulfonamide]
IC50: < 100 nM
inhibition at 0.1 µM [2]: 91.2%

Cc1nnc(C[C@]2(c3ccccc3)CCN([C@@H](C)c3ccc(Br)cc3)C(=O)O2)s1 [EXAMPLE 531, (S)-3-((S)-1-(4-bromophenyl)ethyl)-6-((5-methyl-1,3,4-thiadiazol-2-yl)methyl)-6-phenyl-1,3-oxazinan-2-one]
IC50: < 100 nM
inhibition at 0.1 µM [2]: 73.5%

C[C@@H](c1ccc(C(F)(F)F)cc1)N1CC[C@](CCCO)(c2ccc(F)cc2)OC1=O [EXAMPLE 294, (R)-6-(4-fluorophenyl)-6-(3-hydroxypropyl)-3-((S)-1-(4-(trifluoromethyl)phenyl)ethyl)-1,3-oxazinan-2-one]
IC50: < 100 nM
inhibition at 0.1 µM [3]: 97.2%

COc1ccc([C@H](C)N2CC[C@](CC(C)(C)O)(c3ccccc3)OC2=O)cc1 [EXAMPLE 427, (S)-6-(2-hydroxy-2-methylpropyl)-3-((S)-1-(4-methoxyphenyl)ethyl)-6-phenyl-1,3-oxazinan-2-one]
IC50: < 100 nM
inhibition at 0.1 µM [2]: 97.8%

CC1(c2ccccc2)CCN(c2cccc(-c3ccccc3C#N)c2)C(=O)O1 (stereo not drawn) [EXAMPLE 12, 3′-(6-Methyl-2-oxo-6-phenyl-[1,3]oxazinan-3-yl)-biphenyl-2-carbonitrile]
IC50: < 100 nM
inhibition at 0.1111 µM (111.1 nM compound): 86.4%

O=C1OC(CCO)(c2ccccc2)CCN1c1ccc(F)c(-c2ccc(F)cc2Cl)c1 (stereo not drawn) [EXAMPLE 101, 3-(2′-chloro-4′,6-difluorobiphenyl-3-yl)-6-(2-hydroxyethyl)-6-phenyl-1,3-oxazinan-2-one]
IC50: < 100 nM
inhibition at 0.1111 µM (111.1 nM compound): 84.4%

O=C1OC(CCO)(c2ccccc2)CCN1c1cccc(-c2c(Cl)cccc2Cl)c1 (stereo not drawn) [EXAMPLE 69, 3-(2′,6′-dichlorobiphenyl-3-yl)-6-(2-hydroxyethyl)-6-phenyl-1,3-oxazinan-2-one]
IC50: < 100 nM
inhibition at 0.1 µM [3]: 94.7%
inhibition at 0.1111 µM (111.1 nM compound): 94.8%

CNC(=O)c1cccc(-c2cccc(N3CCC(C)(c4ccccc4)OC3=O)c2)c1 (stereo not drawn) [EXAMPLE 31, N-methyl-3′-(6-methyl-2-oxo-6-phenyl-1,3-oxazinan-3-yl)biphenyl-3-carboxamide]
IC50: 100 to 1000 nM
inhibition at 0.1111 µM (111.1 nM compound): 27.5%

CC1(c2ccccc2)CCN(c2cccc(Oc3ccccc3)c2)C(=O)O1 (stereo not drawn) [EXAMPLE 81, 6-methyl-3-(3-phenoxyphenyl)-6-phenyl-1,3-oxazinan-2-one]
IC50: < 100 nM
inhibition at 0.1111 µM (111.1 nM compound): 72.2%

CC1(c2ccccc2)CCN(c2nccc(-c3cccc(F)c3)n2)C(=O)O1 (stereo not drawn) [EXAMPLE 62, 3-(4-(3-fluorophenyl)pyrimidin-2-yl)-6-methyl-6-phenyl-1,3-oxazinan-2-one]
IC50: 100 to 1000 nM
inhibition at 0.1111 µM (111.1 nM compound): 20.5%
